Reference: patent US8563746B2, “Cyclic benzimidazole derivatives useful as anti-diabetic agents” (Merck Sharp & Dohme Corp, priority 2008, dated 2013)

Molecular target: recombinant human AMPK complex 1 (containing α1β1γ1) (Homo sapiens, UniProt Q13131+Q9Y478)
Experiment: In vitro AMPK activation assay ([…])
Type: biochemical
Conditions: not given
Experimental: The recombinant human AMPK complex 1 (containing α1β1γ1) was obtained from baculovirus expression system. Recombinant viruses were generated by cotransfection of AMPK/pBacPak9 clones with Baculogold baculovirus DNA (Pharmingen) in spodoptera frugiperda 21 cells according to the manufacturer's instructions. Each round of virus amplification was performed for 5 days in Grace's medium containing 10% serum. Virus that had been subjected to three rounds of amplification was used for all protein production procedures. To express the AMPK complex, sf21 cells were adapted to serum free medium (SF900 II, Invitrogen) by sequential dilution from serum containing stocks into SF900II medium and maintained in shaker flasks at 90 rpm at 27° C. The recombinant AMPK enzyme complex was produced by triple infection, one recombinant virus for each of the subunits, in sf21 cells under serum free conditions. Cells were infected in log phase, 1×10^6 cells/ml, at a multiplicity of infection of ˜5. Cells were harvested by centrifugation at 10,000×g for 15 minutes after 72 hours of infection with viruses. The insect cell pellet from 2 liters of culture was resuspended in 50 ml lysis buffer (20 mM Tris-HCl, 50 mM NaCl, 50 mM NaF, 30 mM Na PPi, 0.25 M sucrose, 10 mM ZnCl2, 2 mM DTT, 0.4 mg/ml digitonin) and subjected to two cycles of freeze-thaw lysis in a dry-ice ethanol bath. Insoluble material was removed by centrifugation at 10,000×g and the supernatant was fractionated with use of polyethylene glycol (PEG). The protein fraction precipitating between 2.5 and 6% PEG was used for further purification using a Blue-Sepharose step (Zhou et al, J. Clin. Invest. 108, 1167-1174, 2001).
The total in vitro AMPK activation assay volume is 50 μl in a 96-well plate. The reaction mixture contained 100 μM ATP (0.5 μCi ^33P-ATP per reaction), and 50 μM SAMS ([…]) in a buffer (20 mM HEPES, pH 7.0, 5 mM MgCl2, 0.01% Brij35). The reaction was initiated with addition of the enzyme. After 30-minute incubation at 30° C., the reaction was stopped by addition of 80 μl 1% H3PO4. Aliquots (100 μl) were transferred to 96-well MultiScreen plates (MAPHNOB50; Millipore Corp., Bedford, Mass., USA). The plate was washed three times with 1% H3PO4 followed by detection in a Top-count. The counts per minute from the basal activity (the reaction without activator) was subtracted from each well and the data were expressed as % maximum AMP activation followed by EC50 calculation.

Sequence of recombinant human AMPK complex 1 (containing α1β1γ1) (Q13131 whole entry): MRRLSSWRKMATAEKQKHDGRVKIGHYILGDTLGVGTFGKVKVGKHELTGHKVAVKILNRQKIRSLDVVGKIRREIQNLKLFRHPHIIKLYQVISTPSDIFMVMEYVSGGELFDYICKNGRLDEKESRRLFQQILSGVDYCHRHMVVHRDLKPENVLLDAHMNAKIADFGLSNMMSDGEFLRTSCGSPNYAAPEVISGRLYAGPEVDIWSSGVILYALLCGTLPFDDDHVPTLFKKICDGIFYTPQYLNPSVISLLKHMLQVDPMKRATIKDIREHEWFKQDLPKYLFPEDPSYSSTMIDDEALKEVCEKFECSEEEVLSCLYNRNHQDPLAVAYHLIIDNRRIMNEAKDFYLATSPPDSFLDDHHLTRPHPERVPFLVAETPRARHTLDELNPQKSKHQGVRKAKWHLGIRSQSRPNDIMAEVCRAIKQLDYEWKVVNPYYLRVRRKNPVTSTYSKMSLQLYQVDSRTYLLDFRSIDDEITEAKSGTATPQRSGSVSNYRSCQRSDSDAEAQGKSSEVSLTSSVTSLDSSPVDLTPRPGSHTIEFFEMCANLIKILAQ
Sequence of recombinant human AMPK complex 1 (containing α1β1γ1) (Q9Y478 whole entry): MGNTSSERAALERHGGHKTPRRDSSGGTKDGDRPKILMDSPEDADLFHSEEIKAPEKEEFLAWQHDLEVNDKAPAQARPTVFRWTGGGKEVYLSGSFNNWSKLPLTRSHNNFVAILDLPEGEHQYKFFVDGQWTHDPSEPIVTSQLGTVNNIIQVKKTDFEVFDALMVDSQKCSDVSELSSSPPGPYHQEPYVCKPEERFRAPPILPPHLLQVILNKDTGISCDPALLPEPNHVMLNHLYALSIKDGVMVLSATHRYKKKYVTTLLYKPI
Sequence of recombinant human AMPK complex 1 (containing α1β1γ1) (P54619 whole entry partner): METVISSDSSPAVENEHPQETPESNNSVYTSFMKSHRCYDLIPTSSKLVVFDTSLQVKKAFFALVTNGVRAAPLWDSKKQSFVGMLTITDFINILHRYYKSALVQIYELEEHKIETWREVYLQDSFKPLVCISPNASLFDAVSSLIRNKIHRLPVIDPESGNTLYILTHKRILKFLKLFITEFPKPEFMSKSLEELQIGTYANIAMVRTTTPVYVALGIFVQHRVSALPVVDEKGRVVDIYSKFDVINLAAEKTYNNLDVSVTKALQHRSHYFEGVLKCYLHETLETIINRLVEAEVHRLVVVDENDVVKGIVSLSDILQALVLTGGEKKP

O=C(O)CSc1nc2cc(C#Cc3ccccc3)c(Cl)cc2[nH]1 [Example 1, (6-Chloro-5-phenylethynyl-1H-benzoimidazol-2-ylsulfanyl)-acetic acid] was tested. Which EC50 did it give?
Its EC50 is 0.259 µM.

Which EC50 does the source give for O=C(O)CSc1nc2cc(-c3ccc(-c4ccccc4)cc3)c(Cl)cc2[nH]1 [Example 2, (5-Biphenyl-4-yl-6-chloro-1H-benzoimidazol-2-ylsulfanyl)-acetic acid] here?
Its EC50 is 0.09 µM.

Same assay, conditions: recombinant human AMPK complex 1 (α1β1γ1); basal activity subtracted, expressed as % maximum AMP activation

How did the Emax turn out when O=C(O)CSc1nc2cc(-c3ccc4c(c3)OCO4)c(Cl)cc2[nH]1 [Example 3, (5-1,3-benzo-dioxol-5-yl-6-chloro-1H-benzimidazol-2-ylsulfanyl)-acetic acid] was run?
The Emax was > 40%.

How did the Emax turn out when O=C(O)CSc1nc2cc(-c3cccc(F)c3)c(Cl)cc2[nH]1 [Example 4, [6-chloro-5-(3-fluoro-phenyl)-1H-benzimidazol-2-ylsulfanyl]-acetic acid] was run?
Its Emax is > 40%.

Which Emax does the source give for O=C(O)CSc1nc2cc(-c3cc(F)cc(F)c3)c(Cl)cc2[nH]1 [Example 5, [6-chloro-5-(3,5-difluoro-phenyl)-1H-benzimidazol-2-ylsulfanyl]-acetic acid] here?
Its Emax is > 40%.

Which Emax does the source give for CC(=O)NCc1ccc(-c2cc3nc(SCC(=O)O)[nH]c3cc2Cl)cc1 [Example 7, 2-(6-(4-(acetamido-methyl)phenyl)-5-chloro-1H-benzo[d]-imidazol-2-ylthio)-acetic acid] here?
Its Emax is > 40%.

O=C(O)CSc1nc2cc(-c3ccc(O)cc3)c(Cl)cc2[nH]1 [Example 8, 2-(6-chloro-5-(4-hydroxyphenyl)-1H-benzo[d]imidazol-2-ylthio)acetic acid] was tested. Which Emax did it give?
Its Emax is > 40%.

How did the Emax turn out when O=C(O)CSc1nc2cc(-c3ccc(CO)cc3)c(Cl)cc2[nH]1 [Example 9, 2-(6-chloro-5-(4-(hydroxymethyl)phenyl)-1H-benzo[d]-imidazol-2-ylthio)-acetic acid] was run?
The Emax was > 40%.

With Nc1ccccc1C#Cc1cc2nc(SCC(=O)O)[nH]c2cc1Cl [Example 10, 2-(5-((2-amino-phenyl)ethynyl)-6-chloro-1H-benzo[d]-imidazol-2-ylthio)-acetic acid] as the compound, how does the Emax read?
The Emax was > 40%.

O=C(O)CSc1nc2cc(-c3ccc4cn[nH]c4c3)c(Cl)cc2[nH]1 [Example 11, 2-(6-chloro-5-(1H-indazol-6-yl)-1H-benzo[d]imidazol-2-ylthio)acetic acid] was tested. Which Emax did it give?
The Emax was > 40%.

With COc1ccc(-c2cc3nc(SCC(=O)O)[nH]c3cc2Cl)cn1 [Example 12, 2-(6-chloro-5-(6-methoxypyridin-3-yl)-1H-benzo[d]imidazol-2-ylthio)acetic acid] as the compound, how does the Emax read?
Its Emax is > 40%.

O=C(O)CSc1nc2cc(-c3cc4ccccc4o3)c(Cl)cc2[nH]1 [Example 13, 2-(5-(benzofuran-2-yl)-6-chloro-1H-benzo[d]imidazol-2-ylthio)acetic acid] was tested. Which Emax did it give?
Its Emax is > 40%.

Which Emax does the source give for O=C(O)CSc1nc2cc(-c3csc4ccccc34)c(Cl)cc2[nH]1 [Example 14, 2-(5-(benzo[b]-thiophen-3-yl)-6-chloro-1H-benzo[d]-imidazol-2-ylthio)-acetic acid] here?
Its Emax is > 40%.

Which Emax does the source give for O=C(O)CSc1nc2cc(-c3ccc(-n4cccn4)cc3)c(Cl)cc2[nH]1 [Example 15, 2-(5-(4-(1H-pyrazol-1-yl)phenyl)-6-chloro-1H-benzo[d]imidazol-2-ylthio)acetic acid] here?
Its Emax is > 40%.

With O=C(O)CSc1nc2cc(-c3ccc(-c4ccn[nH]4)cc3)c(Cl)cc2[nH]1 [Example 16, 2-(5-(4-(1H-pyrazol-5-yl)phenyl)-6-chloro-1H-benzo[d]imidazol-2-ylthio)acetic acid] as the compound, how does the Emax read?
The Emax was > 40%.

For CC(=O)Nc1cccc(C#Cc2cc3nc(SCC(=O)O)[nH]c3cc2Cl)c1 [Example 17, 2-(5-((3-acetamido-phenyl)ethynyl)-6-chloro-1H-benzo[d]-imidazol-2-ylthio)-acetic acid], which Emax is on record?
Its Emax is > 40%.

Which Emax does the source give for CS(=O)(=O)c1ccc(C#Cc2cc3nc(SCC(=O)O)[nH]c3cc2Cl)cc1 [Example 19, [6-chloro-5-(4-methanesulfonyl-phenyl-ethynyl)-1H-benzo-imidazol-2-yl-sulfanyl]-acetic acid] here?
The Emax was > 40%.

N#Cc1ccccc1C#Cc1cc2nc(SCC(=O)O)[nH]c2cc1Cl [Example 20, [6-chloro-5-(2-cyano-phenyl-ethynyl)-1H-benzo-imidazol-2-ylsulfanyl]-acetic acid] was tested. Which Emax did it give?
The Emax was > 40%.

With O=C(O)CSc1nc2cc(C#CC3CCNCC3)c(Cl)cc2[nH]1 [Example 21, (6-chloro-5-piperidin-4-ylethynyl-1H-benzoimidazol-2-ylsulfanyl)-acetic acid] as the compound, how does the Emax read?
The Emax was > 40%.

How did the Emax turn out when O=C(O)CSc1nc2cc(C#Cc3ccc(F)cc3)c(Cl)cc2[nH]1 [Example 22] was run?
The Emax was > 40%.

For O=C(O)CSc1nc2cc(C#Cc3cccc(F)c3)c(Cl)cc2[nH]1 [Example 23], which Emax is on record?
Its Emax is > 40%.

How did the Emax turn out when O=C(O)CSc1nc2cc(C#Cc3ccc(F)cc3F)c(Cl)cc2[nH]1 [Example 24, [6-chloro-5-(2,4-difluoro-phenyl-ethynyl)-1H-benzoimidazol-2-ylsulfanyl]-acetic acid] was run?
The Emax was > 40%.

With O=C(O)CSc1nc2cc(C#Cc3ccncc3)c(Cl)cc2[nH]1 [Example 25, (6-chloro-5-pyridin-4-yl-ethynyl-1H-benzoimidazol-2-ylsulfanyl)-acetic acid] as the compound, how does the Emax read?
Its Emax is > 40%.

O=C(O)CSc1nc2cc(C#CCOc3ccccc3)c(Cl)cc2[nH]1 [Example 26, [6-chloro-5-(3-phenoxy-prop-1-ynyl)-1H-benzo-imidazol-2-yl-sulfanyl]-acetic acid] was tested. Which Emax did it give?
The Emax was > 40%.

Which Emax does the source give for O=C(O)CSc1nc2cc(C#Cc3ccccc3F)c(Cl)cc2[nH]1 [Example 27] here?
The Emax was > 40%.

How did the Emax turn out when N#Cc1ccc(C#Cc2cc3nc(SCC(=O)O)[nH]c3cc2Cl)cc1 [Example 28, [6-chloro-5-(4-cyano-phenyl-elhynyl)-1H-benzoimidazol-2-ylsulfanyl]-acetic acid] was run?
The Emax was > 40%.

For O=C(O)CSc1nc2cc(C#Cc3cccc(O)c3)c(Cl)cc2[nH]1 [Example 29, [6-chloro-5-(3-hydroxyphenyl-ethynyl)-1H-benzoimidazol-2-ylsulfanyl]-acetic acid], which Emax is on record?
The Emax was > 40%.

For Cc1ccccc1C#Cc1cc2nc(SCC(=O)O)[nH]c2cc1Cl [Example 30, (6-chloro-5-o-tolylethynyl-1H-benzo-imidazol-2-ylsulfanyl)-acetic acid], which Emax is on record?
The Emax was > 40%.

How did the Emax turn out when Cc1cccc(C#Cc2cc3nc(SCC(=O)O)[nH]c3cc2Cl)c1 [Example 31, (6-chloro-5-m-tolylethynyl-1H-benzoimidazol-2-ylsulfanyl)-acetic acid] was run?
The Emax was > 40%.

COc1cccc(C#Cc2cc3nc(SCC(=O)O)[nH]c3cc2Cl)c1 [Example 32, [6-chloro-5-(3-methoxy-phenyl-ethynyl)-1H-benzoimidazol-2-ylsulfanyl]-acetic acid] was tested. Which Emax did it give?
The Emax was > 40%.

With O=C(O)CSc1nc2cc(C#Cc3ccc(Oc4ccccc4)cc3)c(Cl)cc2[nH]1 [Example 33, [6-Chloro-5-(4-phenoxy-phenylethynyl)-1H-benzoimidazol-2-ylsulfanyl]-acetic acid] as the compound, how does the Emax read?
The Emax was > 40%.

With O=C(O)CSc1nc2cc(C#Cc3ccc(-c4ccccc4)cc3)c(Cl)cc2[nH]1 [Example 34, (5-biphenyl-4-ylethynyl-6-chloro-1H-benzoimidazol-2-ylsulfanyl)-acetic acid] as the compound, how does the Emax read?
Its Emax is > 40%.

How did the Emax turn out when O=C(O)CSc1nc2cc(C#CC3CCCC3)c(Cl)cc2[nH]1 [Example 35, (6-chloro-5-cyclo-pentylethynyl-1H-benzo-imidazol-2-yl-sulfanyl)-acetic acid] was run?
Its Emax is > 40%.

Which Emax does the source give for CCc1ccc(C#Cc2cc3nc(SCC(=O)O)[nH]c3cc2Cl)cc1 [Example 36, [6-chloro-5-(4-ethyl-phenyl-ethynyl)-1H-benzo-imidazol-2-yl-sulfanyl]-acetic acid] here?
Its Emax is > 40%.

With COc1ccc2cc(C#Cc3cc4nc(SCC(=O)O)[nH]c4cc3Cl)ccc2c1 [Example 37, [6-chloro-5-(6-methoxy-naphthalen-2-yl-ethynyl)-1H-benzo-imidazol-2-yl-sulfanyl]-acetic acid] as the compound, how does the Emax read?
Its Emax is > 40%.

Same assay, conditions: recombinant human AMPK complex 1 (α1β1γ1); read-out: EC50

For O=C(O)CSc1nc2cc(-c3ccc(-c4ccccc4O)cc3)c(Cl)cc2[nH]1 [Example 6, 2-(6-chloro-5-(2′-hydroxybiphenyl-4-yl)-1H-benzo[d]imidazol-2-ylthio)acetic acid], which EC50 is on record?
Its EC50 is 0.013 µM.

With O=C(O)CSc1nc2cc(C#Cc3ccc(CO)cc3)c(Cl)cc2[nH]1 [Example 18, [6-Chloro-5-(4-hydroxymethyl-phenylethynyl)-1H-benzoimidazol-2-ylsulfanyl]-acetic acid] as the compound, how does the EC50 read?
The EC50 was 0.248 µM.
